Laboratory results as given in patent US20260085091A1, “PEPTIDES THAT SELECTIVELY BIND TO Trop2 AND USE THEREOF” (KYUNGPOOK NATIONAL UNIVERSITY INDUSTRY-ACADEMIC COOPERATION …, priority 2022, published 2026).
Primed or numbered codes have the meaning given here. Ends that are not written are not given here. FITC′ = not defined here

Legend:
KKU-213 cells [1] = assay: Transwell migration assay; format: cell-based, human; settings: dose-dependent
Protocol: (§1) Serum-starved KKU-213 cells were resuspended with serum-free medium containing peptide and added to the 8.0 μm pore polycarbonate insert of a Transwell chamber (Corning Life Sciences, Tewksbury, MA, USA). For the invasion assay, the membrane was coated with 0.3 μg Matrigel matrix (Corning Life Sciences) at 37° C. for 2 h before use. Serum-containing or serum-free medium was added to the reservoir and reacted at 37° C. overnight. The migrated or invaded cells were fixed and stained with 0.1% crystal violet solution at RT for 10 min. The stained cells were counted under a light microscope.
(§2) Trop2 is involved in EMT and metastasis, and to examine whether CSTLNVESC (SEQ ID NO: 1) peptide affects cell migration and invasion, trans-well chamber assays were performed.

KKU-213 cells [2] = assay: Cytotoxicity of peptide in cholangiocarcinoma cell line; format: cell-based, human; settings: 24 h, concentration up to 256 μM
Protocol: (§3) To examine whether CSTLNVESC (SEQ ID NO: 1) peptide affects cell survival, KKU-213 and KKU-055 cells were reacted with the peptide for 24 h.

KKU-055 cells [3] = assay: as above; format: cell-based, human; settings: 24 h, concentration up to 256 μM
Protocol: as §3

[4] = system: KKU-213 subcutaneous tumor; assay: Tumor homing assay (IVIS imaging)
Protocol: Four-week-old BALB/c female nude mice were purchased from Orient Bio (Seongnam, Republic of Korea). The mice were cared for and maintained in conformance with the Guidelines of the Institutional Animal Care and Use Committee (IACUC) of Kyungpook National University (permission no. 2017-0077). The mice were maintained in specific-pathogen free condition, controlled temperature (22±2° C.), humidity (50±10%), and light/dark cycle (12:12 h). Sterile tablet food, water and bedding were provided ad libitum. The mice were injected subcutaneously with approximately two million KKU-213 cells resuspended in 100 μl DMEM. When the tumor size reached 200 mm^3 after approximately 4 weeks, the mice were intravenously injected with near-infrared Flamma Fluor 675-labeled peptides. After 2 h, the signal was detected using the In Vivo Imaging System (IVIS) (PerkinElmer, Waltham, MA, USA). During the analysis the mice were anesthetized with 2.5% isoflurane in a gas chamber supplied with oxygen flowmeter 0.8 L/min. […] The frozen tissues were prepared for histological examination.
To examine the tumor homing of […] (SEQ ID NO: 1) peptide, the peptide was conjugated with Flamma 675 near-infrared dye and intravenously injected into mice bearing KKU-213 subcutaneous tumor.

KKU-213 cells [5] = assay: Transwell invasion assay (Matrigel); format: cell-based, human; settings: dose-dependent
Protocol: as §1, §2

[6] = Serum stability analysis by HPLC; format: in vitro ADME; settings: mouse serum, 37° C., 24 h incubation, declined thereafter
Protocol: CSTLNVESC (SEQ ID NO: 1) peptide was stable until 16 h and declined thereafter (FIG. 9).

[7] = system: HeLa cervical tumor cells; assay: FITC-peptide cell binding (FIG. 6B); format: cell-based
[8] = system: Trop2-expressing KKU-213 cells; assay: Immunofluorescence microscopic analysis of FITC-peptide binding; format: cell-based, human
Protocol: For co-localization assays, cells were reacted with FITC-conjugated peptide at 4° C. for 1 h and fixed with 4% PFA at RT for 10 min. Next, cells were reacted with mouse anti-Trop2 antibody at 4° C. overnight and then with Alexa Fluor 594-labeled anti-mouse IgG antibody (Thermo Fisher Scientific) at RT for 1 h. Cells were counter-stained with DAPI and enclosed with an anti-fade agent. The slides were examined using a confocal microscope.
(§4) To examine the binding of CSTLNVESC (SEQ ID NO: 1) peptide to cells, CSTLNVESC (SEQ ID NO: 1) peptide was tagged with FITC fluorescence dye at the carboxy terminus. […] In contrast, NSSSVDK-FITC control peptide weakly bound to both cell lines. Binding of CSTLNVESC (SEQ ID NO: 1)-FITC peptide, but not NSSSVDK-FITC peptide, to Trop2-expressing KKU-213 cells was also observed by immunofluorescence microscopic analysis (FIG. 5B).

KKU-213 cells [9] = assay: Flow cytometry binding of FITC-labeled peptide; format: cell-based, human
Protocol: (§5) A million cells were prepared, fixed with 4% PFA, and blocked with 1% BSA at RT for 30 min. The cells were reacted with mouse anti-Trop2 antibody at RT for 1 h with agitation. Then, cells were reacted with Alexa Fluor 488-labeled anti-mouse IgG antibody at RT for 1 h. For peptide binding, cells were reacted with FITC-labeling peptide at 4° C. for 1 h with agitation. The stained cells were fixed with 4% PFA before analysis with a flow cytometer.
as §4

H460 lung tumor cells = assay: FITC-peptide cell binding (FIG. 6B); format: cell-based
[10] = system: Trop2-silenced KKU-213 cells; assay: FITC-peptide binding after Trop2 silencing with siRNAs; format: cell-based, human; settings: KKU-213 transfected with Trop2 siRNAs for 24 h
Description: To prepare Trop2-overexpressing cells for biopanning, pCMV6-AC-GFP plasmid including human Trop2 gene, tacstd2, (Origene, Rockville, MD, USA) was transfected into HEK293T cells using Lipofectamine 2000 (Thermo Fisher Scientific, Waltham, MA, USA). For Trop2 silencing, KKU-213 cells were transfected with a small-interfering RNA (siRNA) against Trop2 gene (Qiagen, Venlo, Netherlands) or control siRNA (Bioneer, Oakland, CA) using Lipofectamine RNAiMAX (Thermo Fisher Scientific). Two siRNAs, siTrop21 and siTrop22 have been designed specifically to target sequences; 5′-CCCGGGATCGTTTGCAAGTAA-3 (SEQ ID NO: 4)′ and 5′-TTGCGACATTGTGAAGGCTTA-3 (SEQ ID NO: 5)′. The silencing efficiencies were analyzed by Western blots.
For co-localization assays, cells were reacted with FITC-conjugated peptide at 4° C. for 1 h and fixed with 4% PFA at RT for 10 min. […]
To further examine whether the binding of CSTLNVESC (SEQ ID NO: 1)-FITC peptide to the Trop2-overexpressing cells was mediated by Trop2, Trop2 gene expression in KKU-213 cells was silenced using Trop2 siRNAs. Trop2 expression was reduced after transfection with Trop2 siRNAs for 24 h as determined by western blotting (FIG. 5C), immunofluorescence microscopy (FIG. 5D), and flow cytometry (FIG. 5E). […]

[11] = system: Trop2-overexpressing MCF7 breast tumor cells; assay: FITC-peptide cell binding (FIG. 6B); format: cell-based
KKU-055 cells [12] = assay: Cell binding affinity assay using the Ligand Tracer; design: species or system human
Protocol: To determine the cell binding affinity of CSTLNVESC (SEQ ID NO: 1) peptide, a binding assay using the Ligand Tracer was performed. The machine continuously monitored the CSTLNVESC (SEQ ID NO: 1)-FITC peptide binding to KKU-213 or KKU-055 cells that was dose and time-dependent.

[13] = system: Trop2-overexpressing HEK293T cells; assay: FITC-peptide cell binding (FIG. 6A); format: cell-based, human
KKU-055 cells [14] = assay: Flow cytometry binding of FITC-labeled peptide; format: cell-based, human
Protocol: as §5
as §4, with “CSTLNVESC” left out

[15] = Systemic side effects in treated tumor-bearing mice (body weight, blood markers); format: in vivo; settings: after treatment, 10 mg/kg intravenous three times per week
Description: (§6) To exploit the use of CSTLNVESC (SEQ ID NO: 1) peptide for targeted cancer therapy, a Trop2-targeted cytotoxic peptide consisting of CSTLNVESC (SEQ ID NO: 1), RRRRRRR (SEQ ID NO: 2) (R7), and KLAKLAKKLAKLAK (SEQ ID NO: 3) (KLA) peptides was synthesized and named CSTLNVESC (SEQ ID NO: 1)-R7-KLA. R7 is a well-known cell-penetrating peptide that enhances the internalization of peptides and proteins into cells. KLA is a cytotoxic peptide that may cause damage to mitochondrial membrane of mammalian cells when introduced into cells and induce cell death. CSTLNVESC (SEQ ID NO: 1)-R7-KLA was intravenously injected into mice bearing KKU-213 tumor (10 mg/kg, three times per week, FIG. 12A). CSTLNVESC (SEQ ID NO: 1)-targeted R7-KLA peptide reduced tumor volume (FIG. 12B) and tumor weight (FIG. 12C) more efficiently than the control peptide-targeted R7-KLA or combined treatment of CSTLNVESC (SEQ ID NO: 1), R7, and KLA.

KKU-213 tumor = assay: Anti-tumor growth activity in tumor-bearing mice; format: in vivo; settings: 10 mg/kg intravenous, three times per week; versus control peptide-targeted R7-KLA or combined CSTLNVESC, R7, and KLA
Description: as §6

[16] = biological target: T1, Trop2 (trophoblast antigen 2) expressed on human tumor cell lines (human, UniProt P09758 27-323); assay: Ligand Tracer, real-time binding of FITC-peptide to KKU-213 cells
T1 construct: whole, on cells; Endogenous membrane glycoprotein; also called tacstd2; Trop2-positive KKU-213 cells
T1 sequence (looked up): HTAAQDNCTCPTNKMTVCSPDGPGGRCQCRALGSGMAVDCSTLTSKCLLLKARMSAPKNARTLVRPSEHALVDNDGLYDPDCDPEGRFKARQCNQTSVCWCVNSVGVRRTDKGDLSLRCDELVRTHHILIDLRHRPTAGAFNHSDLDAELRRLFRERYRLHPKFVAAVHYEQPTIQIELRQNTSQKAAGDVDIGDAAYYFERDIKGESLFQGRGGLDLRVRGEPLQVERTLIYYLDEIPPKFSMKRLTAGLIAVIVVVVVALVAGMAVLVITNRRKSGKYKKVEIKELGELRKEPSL
Protocol: To determine the cell binding affinity of […] (SEQ ID NO: 1) peptide, a binding assay using the Ligand Tracer was performed.

CSTLNVESC [CSTLNVESC (SEQ ID NO: 1)]
serum-induced migration (KKU-213 cells [1]): inhibited | cytotoxicity (KKU-213 cells [2]): No cytotoxicity | cytotoxicity (KKU-055 cells [3]): No cytotoxicity | accumulation and co-localization with Trop2 in tumor tissues (immunofluorescence) ([4]; anti-Trop2 antibody staining of tumor tissue): accumulated and co-localized with Trop2 in tumor tissues | average photons in other organs, versus control peptide ([4]; isolated organs except kidney): similar | serum-induced invasion (KKU-213 cells [5]): inhibited | time until which peptide was stable in serum [6]: 16 h

CSTLNVESC (SEQ ID NO: 1)-FITC (CSTLNVESC-{FITC′}; cysteine pairing not given here) [… peptide tagged with FITC fluorescence dye at the carboxy terminus]
binding to cells [7]: selectively bound | binding to cells (immunofluorescence microscopy) [8]: observed | binding to cells (flow cytometry) (KKU-213 cells [9]): bound to KKU-213 cells at higher levels than to KKU-055 cells | binding to cells (H460 lung tumor cells): selectively bound | binding to Trop2-silenced cells [10]: reduced | binding to cells [11]: selectively bound | binding (Ligand Tracer) (KKU-055 cells [12]): hardly detected | binding to cells [13]: selectively bound

CSTLNVESC (SEQ ID NO: 1)-Flamma 675: CSTLNVESC peptide conjugated with Flamma 675 near-infrared dye (cysteine pairing not given here; also: conjugated with Flamma 675 near-infrared dye, site not given here)
accumulation in tumor, ex vivo imaging and average photons in isolated organs ([4]; mouse, in vivo): accumulation | average photons in tumor ([4]; mouse, in vivo): higher than those of the control peptide | tumor homing, whole-body imaging ([4]; mouse, in vivo, iv): homed to tumor more efficiently than the control peptide

NSSSVDK-FITC: FITC-labeled NSSSVDK control peptide (also: FITC label, site not given here) [reference compound]
binding to cells (flow cytometry) (KKU-055 cells [14]): weakly bound | binding to cells (flow cytometry) (KKU-213 cells [9]): weakly bound

CSTLNVESC (SEQ ID NO: 1)-R7-KLA: Trop2-targeted cytotoxic peptide consisting of CSTLNVESC, RRRRRRR (R7), and KLAKLAKKLAKLAK (KLA) peptides (CSTLNVESCRRRRRRRKLAKLAKKLAKLAK)
level of kidney function marker BUN [15]: within normal ranges | level of kidney function marker creatinine [15]: within normal ranges | level of liver function enzyme ALP [15]: within normal ranges | level of liver function enzyme ALT [15]: within normal ranges | level of liver function enzyme AST [15]: within normal ranges | tumor volume (KKU-213 tumor): reduced | tumor weight (KKU-213 tumor): reduced

B1: CSTLNVESC (SEQ ID NO: 1)-FITC peptide (peptide)
peptide: CSTLNVESC-{FITC′}
modifications: cysteine pairing not given here
notes: Synthetic peptide (Fmoc), from a CX7C T7 phage library; also called FITC-conjugated peptide
Kd [16]: 5.21 µM
